# Data: patent US4810699A, “Substituted 1,3,4,9-tetrahydropyrano[3,4,-b]indole-1-acetic acids, pharmaceutical compositions containing them, and methods for treating inflammatory conditions and for analgesic purposes using them” (American Home Products Corporation, priority 1987, dated 1989)
# Legend:
# Adjuvant Edema = experiment: Preventative Adjuvant Edema; type: in vivo, Male Sprague Dawley rats; conditions: rat; for ED50: po, days 0, 1 and 2; for Preventative Adjuvant Edema, percent inhibition: p.o.
# Protocol: This test is a primary screen for anti-inflammatory drugs.
# Male Sprague Dawley rats (180-200 g) are used. The animals have free access to water but food is withdrawn 18 hours before testing.
# Drug Preparations and Administration:
# Freund's complete adjuvant is prepared by suspending 5 mg of killed and dried Mycobacterium butyricum (Difco) in 1 mL mineral oil. The test compound are dissolved, or suspended in 0.5% Tween 80 in distilled water according to their solubility. For primary screening all drugs are administered by gastric lavage at the arbitrary dosage of 25 mg/kg, p.o. in a volume of 0.5 mL/100 g body weight to groups of 10 animals.
# The method is essentially that described by Wax et al, J. Pharmacol. Exp. Ther., 192, 166-171 (1975). Groups of rats are injected intradermally in the left hind paw with 0.1 mL of Freund's complete adjuvant. The test compound or vehicle is administered immediately before the adjuvant, 24 hours and 48 hours after the adjuvant (days 0, 1 and 2). The injected hind paw volume is measured before the injection of adjuvant and 24 hrs. after the last drug administration (day 3) by means of a plethysmometer (Buxco Electronics Inc.). The difference between the hind paw volume on day 0 and day 3 represents the edema volume. Etodolac (25 mg/kg, p.o.) is included as a positive control.
# The mean edema volume (expressed as mL±SEM) is calculated for each group and the percentage protection conferred by the drug is calculated: [formula] where c is the mean edema volume for the vehicle-treated (0.5% Tween 80 in distilled water) controls and t is the mean edema volume for the drug treated group.
# [1] = test system: Phenylbenzoquinone-induced Writhing; experiment: Drug Effects on Phenylbenzoquinone-induced Writhing in Mice; type: in vivo, Male Swiss albino mice; conditions: mouse, p.o., 60 min before PBQ i.p.; for Phenylquinone Writhing in Mice, percent inhibition: dose 10 mg/kg; for ED50: po, read-out: Phenylquinone Writhing in Mice ED50
# Protocol: A further test used to determine the utility of the compounds of the present invention is designated: Drug Effects on Phenylbenzoquinone-induced Writhing in Mice
# The objective of this test is to determine the ability of test drugs to inhibit the nociceptive (pain) response of mice injected with a chemical irritant. This test is a primary screen for both peripheral and centrally acting analgesic drugs.
# Male Swiss albino mice (15-25 g). The animals are fasted for 18 hours prior to use but have free access to water.
# Drug Preparation and Administration:
# Drugs are dissolved or suspended according to their solubility in 0.5% Tween 80 in distilled water. They are administered by gastric gavage in a volume of 5 mL/kg. For primary screening all drugs are administered at the arbitrary dosage of 25 mg/kg, p.o. to a group of 10 mice.
# A modification of the method of Siegmund et al, Proc. Soc. Exp. Biol. Med., 95, 729-731 (1957) is used. Groups of 5 mice are dosed with the test compound or vehicle control. Sixty minutes later the animals are injected i.p. with 0.3 mL/20 g body weight of a 0.02% solution of phenylbenzoquinone (PBQ; 2-phenyl-1,4-benzoquinone) and placed in individual observation boxes. The number of writhing or abdominal squirming movements made by each mouse during the following 15 min. period is counted. The experiment is repeated with another group of 5 mice and the mean number of writhes per mouse for a group of 10 mice is calculated.
# Drug treated and vehicle-treated control groups are compared and the percentage protection conferred by the drug is calculated: [formula] where c=mean number of writhes in the control group
# t=mean number of writhes in the test drug group
structure (smiles),measurement,setting,value
"CCC1(CC(=O)O)OCCc2c1[nH]c1c(OCC(F)(F)F)ccc(C)c21 (stereo not drawn) [Example 1, 1-Ethyl-1,3,4,9-tetrahydro-5-methyl-8-(2,2,2-trifluoroethoxy)pyrano[3,4-b]indole-1-acetic Acid]",ED50,Adjuvant Edema,16.4 mg/kg
same,"Phenylquinone Writhing in Mice, percent inhibition",[1],34%
"CCC1(CC(=O)O)OCCc2c1[nH]c1c(OCC(F)(F)F)c(Cl)ccc21 (stereo not drawn) [Example 2, 7-Chloro-1-ethyl-1,3,4,9-tetrahydro-8-(2,2,2-trifluoroethoxy)pyrano[3,4-b]indole-1-acetic Acid]","Preventative Adjuvant Edema, percent inhibition",Adjuvant Edema; dose 3 mg/kg,50%
same,ED50,[1],77 mg/kg
"CCC1(CC(=O)O)OCCc2c1[nH]c1c(OCC(F)(F)F)ccc(F)c21 (stereo not drawn) [Example 3, 1-ethyl-5-fluoro-1,3,4,9-tetrahydro-8-(2,2,2-trifluoroethoxy)-pyrano[3,4-b]indole-1-acetic acid]","Preventative Adjuvant Edema, percent inhibition",Adjuvant Edema; dose 25 mg/kg,70%
same,"Phenylquinone Writhing in Mice, percent inhibition",[1],18%
"CCC1(CC(=O)O)OCCc2c1[nH]c1c(OCC(F)(F)F)c(F)ccc21 (stereo not drawn) [Example 4, 7-fluoro-1-ethyl-1,3,4,9-tetrahydro-8-(2,2,2-trifluoroethoxy)-pyrano[3,4-b]indole-1-acetic acid]","Preventative Adjuvant Edema, percent inhibition",Adjuvant Edema; dose 10 mg/kg,83%
same,"Phenylquinone Writhing in Mice, percent inhibition",[1],0%
"CCC1(CC(=O)O)OCCc2c1[nH]c1c(OC(C)C(F)(F)F)c(Cl)ccc21 (stereo not drawn) [Example 5, 7-chloro-1-ethyl-1,3,4,9-tetrahydro-8-(1-methyl-2,2,2-trifluoroethoxy)-pyrano[3,4-b]indole-1-acetic acid]","Preventative Adjuvant Edema, percent inhibition",Adjuvant Edema; dose 25 mg/kg,41%
same,"Phenylquinone Writhing in Mice, percent inhibition",[1],31%
"CCC1(CC(=O)O)OCCc2c1[nH]c1c(OCC(F)(F)F)cccc21 (stereo not drawn) [Example 6, 1-Ethyl-1,3,4,9-tetrahydro-8-(2,2,2-trifluoroethoxy)pyrano[3,4-b]indole-1-acetic Acid]",ED50,Adjuvant Edema,4.3 mg/kg
same,ED50,[1],> 200 mg/kg
"C=CCOc1cccc2c3c([nH]c12)C(CC)(CC(=O)O)OCC3 (stereo not drawn) [Example 7, 1-ethyl-1,3,4,9-tetrahydro-8-[(2-propenyl)oxy]-pyrano[3,4-b]indole-1-aceticacid]","Preventative Adjuvant Edema, percent inhibition",Adjuvant Edema; dose 25 mg/kg,41%
same,"Phenylquinone Writhing in Mice, percent inhibition",[1],18%
"C#CCOc1cccc2c3c([nH]c12)C(CC)(CC(=O)O)OCC3 (stereo not drawn) [Example 8, 1-Ethyl-1,3,4,9-tetrahydro-8-[(2-propynyl)oxy]-pyrano[3,4-b]indole-1-aceticAcid]","Preventative Adjuvant Edema, percent inhibition",Adjuvant Edema; dose 25 mg/kg,34%
